Test results: ChEMBL document CHEMBL1132898, “COBRA-1, a rationally-designed epoxy-THF containing compound with potent tubulin depolymerizing activity as a novel anticancer agent” (2000)
The source made the active and inactive calls. The calls are words filed in the database; no cut-off is given here.

How the values were obtained:
BT-20 = assay: Concentration of compound that increased the level of c-jun mRNA expression in BT-20 breast cancer cells; type: functional, cell-based; conditions: Homo sapiens
NALM-6 [1] = assay: Cytotoxic activity (<10 uM) against clonogenic NALM-6 leukemia using standard in vitro clonogenic assay; No effect; type: functional, cell-based; conditions: Homo sapiens
U373 MG [2] = assay: Concentration for inhibition of proliferation of U373 by impairing the mitotic spindle assembly at a concentration; Range 1-10 uM; type: functional, cell-based; conditions: Homo sapiens; U-373MG ATCC
[3] = molecular target: Tubulin alpha chain (Sus scrofa) (UniProt P02550); assay: Compound was tested for tubulin polymerization in presence of GTP by using cell free tubulin turbidity assay; Active; type: functional
PC-3 [4] = assay: Cytotoxic activity (<10 uM) against PC-3 prostate cancer cells using standard in vitro clonogenic assay; No effect; type: functional, cell-based; conditions: Homo sapiens
PC-3 [5] = assay: Compound (10 uM) was tested for its ability to kill clonogenic PC-3 cells; type: functional, Homo sapiens
Homo sapiens = species: Homo sapiens; assay: Concentration for inhibition of proliferation of BT-20 by impairing the mitotic spindle assembly; Range 1-10 uM; type: functional
U373 MG [6] = assay: Concentration of compound that increased the level of c-jun mRNA expression in U373 glioblastoma cells; type: functional, cell-based; conditions: Homo sapiens; U-373MG ATCC
NALM-6 [7] = assay: Compound (10 uM) was tested for its ability to kill clonogenic NALM-6 cells; type: functional, Homo sapiens
PC-3 [8] = assay: Compound (100 uM) was tested for its ability to kill clonogenic PC-3 cells at 100 uM; type: functional, Homo sapiens
NALM-6 [9] = assay: Compound (100 uM) was tested for its ability to kill clonogenic NALM-6 leukemia cells at 100 uM; type: functional, Homo sapiens

Chain of Tubulin alpha chain (Sus scrofa) (P02550 whole entry, looked up): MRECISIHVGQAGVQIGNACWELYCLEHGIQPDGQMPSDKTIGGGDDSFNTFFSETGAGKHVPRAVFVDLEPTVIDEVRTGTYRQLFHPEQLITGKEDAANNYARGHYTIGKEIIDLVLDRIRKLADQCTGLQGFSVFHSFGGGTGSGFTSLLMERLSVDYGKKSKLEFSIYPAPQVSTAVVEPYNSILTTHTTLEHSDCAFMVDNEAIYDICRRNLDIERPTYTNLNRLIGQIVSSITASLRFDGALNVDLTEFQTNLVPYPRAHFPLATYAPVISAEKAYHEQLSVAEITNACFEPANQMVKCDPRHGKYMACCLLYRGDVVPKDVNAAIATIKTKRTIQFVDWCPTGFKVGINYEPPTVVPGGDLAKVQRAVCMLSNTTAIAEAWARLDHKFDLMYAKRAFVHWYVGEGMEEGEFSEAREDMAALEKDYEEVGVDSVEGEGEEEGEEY

**Q.** Which results are given for `C=CCC[C@H](O)[C@H]1CC[C@H]([C@H](O)CCCCCCCCCCCC)O1`?
**A.** Concentration (BT-20): 250 µM; Concentration (NALM-6 [1]): inactive; Concentration (U373 MG [2]): 10 µM; inhibition [3]: Active; Concentration (PC-3 [4]): inactive; Cell kill (PC-3 [5]): 91%; Concentration (Homo sapiens): 10 µM; Concentration (U373 MG [6]): 250 µM; Cell kill (NALM-6 [7]): 99%; Cell kill (PC-3 [8]): >99.9%; Cell kill (NALM-6 [9]): >99.9%
